According to patent US20210186972A1, “FORMULATIONS AND METHODS FOR THE PREVENTION AND TREATMENT OF TUMOR METASTASIS AND TUMORIGENESIS” (THE UNITED STATES OF AMERICA, AS REPRESENTED BY THE …, priority 2018, published 2021):

Assays:
PC3M cells = test: 24-well Transwell MATRIGEL invasion assay, PC3M; type: cell-based, human; conditions: 0.6 μM, within 24 hours
Protocol: FIG. 3 is a bar graph showing that metarrestin inhibits MATRIGEL gelatinous protein mixture (BD Biosciences, Franklin Lakes, N.J.) invasion at below micromolar concentrations (0.6 μM) within 24 hours of treatment (* p<0.05 and ** p<0.01 in comparison to DMSO [control]). The invasion (%) is on the y-axis and the metarrestin [microM] is on the x-axis. The cell line PC3M is shown in white bars and the cell line PANC1 (human pancreas) is shown in black bars.
24-well Transwell Permeable MATRIGEL gelatinous protein mixture Invasion assay: The effect of metarrestin on invasion activity of PANC1 and PC3M cells was measured using 24-well Transwell Permeable MATRIGEL gelatinous protein mixture Invasion Chambers with 8 μm pores (Corning, Cat #354480). Membranes were rehydrated with 500 μL of serum-free DMEM (Thermo Fisher, Cat #11965084) both inside the chamber and inside the well and incubated for two hours at 37° C., 5% CO2. Cells were detached, washed, resuspended in serum-free DMEM, counted, and diluted to a final concentration of 1×10^5 cells/mL in six separate 15 mL conical tubes. […] 750 μL of DMEM plus 10% FBS acting as a chemoattractant were placed in the basal wells. Plates were incubated at 37° C., 5% CO2 for 24 hours. […]

[1] = system: PC3M cells overexpressing eEF1A2; test: PNC disassembly in eEF1A2-overexpressing cells; type: cell-based; conditions: vs control vector
Description: FIG. 39 is a graph showing that overexpression of eEF1A2 in PC3M cells increased the IC50 of metarrestin for PNC disassembly. PNC prevalence (%) is on the y-axis and the log [M] metarrestin is on the […]. eEF1A2 is shown by circles and the control vector is shown by squares.
eEF1As are multi-functional proteins, implicated in translation elongation, actin bundling, nuclear transport, and tRNA export. To evaluate whether eEF1A mediates the effect of metarrestin on cancer cells, eEF1A was either overexpressed or reduced through siRNA silencing. […] Thus, eEF1A2 enhances PNC structures, but is alone not sufficient to induce significant formation of PNCs in PNC-negative cells. To evaluate the functional link between the phenotype of metarrestin-induced PNC disassembly and eEF1A2, PNC disassembly in wild type and eEF1A2-overexpressing cancer cells was analyzed. Cells with and without over expression of eEF1A2-HA (48 hours after transfection with an efficiency at around 70%, FIGS. 61 and 64) were treated with metarrestin at 10 concentrations, and PNC prevalence was evaluated at 63× magnification. […] To evaluate whether eEF1A2 indeed regulates the metastatic phenotype, PANC1 cells with (PANC1 eEF1A2 O.E.) or without (PANC1 control) overexpression of eEF1A2 were orthotopically injected into NSG mice. Six weeks after implantation, organs were subjected to histopathological evaluation.

With `N=c1c2c(-c3ccccc3)c(-c3ccccc3)n(Cc3ccccc3)c2ncn1[C@H]1CC[C@H](O)CC1` [metarrestin] the “Invasion of PC3M cells” value (PC3M cells) was “effectively blocked the invasion” and the “IC50 for PNC disassembly with increased expression of eEF1A2” value [1] was “increased the inhibitory concentration 50 (IC50)”.
